The results in this text go back to patent publication US11564911B2, “Small molecule dual-inhibitors of TRPV4 and TRPA1 for sanitizing and anesthetizing” (Duke University, priority 2016, dated 2023).

Data set [1] concerns the target T1, TRPV1 (Mus musculus, UniProt Q704Y3).
T1 construct: expressed in transfected cells; host or cells: N2a cells, eGFP co-transfected
The experiment in a line: Ca++ imaging in N2a cells over-expressing TRPV1. Format: cell-based. The note with it: 5 μM, mouse isoform in N2a cells. From the text: Mean±SEM is shown, ≥100 cells per condition. […] Plot generated from averaged peak ΔCa++ concentration of […] per data-point.

In data set [2] the target is T2, human TRPV1 (Homo sapiens, UniProt Q8NER1).
T2 construct: expressed in transfected cells; host or cells: N2a cells
Put plainly: Ca2+ signal in N2a cells transfected with human TRPV1 (capsaicin). Format: cell-based. The note with it: 5 μM capsaicin stimulation. As for the experimental part:
(§1) Compounds were tested for their effect on TRPV1, TRPV2, and TRPV3. Methods were similar to those described in Example 15. Briefly, N2a cells were transfected with human TRPV1, TRPV2, or TRPV3. eGFP-transfection was used as control. For specific stimulation of TRPV1, 5 μM capsaicin was used. For stimulation of TRPV2, hypotonicity (260 mosmol/L) was used, based on previous reports of TRPV2 being osmotically responsive. N2a cells were not responsive to hypotonicity, and neither were control-transfected cells. For TRPV3-expressing cells, camphor (20% of a commercially available stock solution) was used. […] Stimulation and control protocols were applied as for TRPA1-expressing N2a cells as detailed above in Example 15.

Data set [3] deals with T3, human TRPV3 (Homo sapiens, UniProt Q8NET8).
T3 construct: expressed in transfected cells; host or cells: N2a cells
The experiment in a line: Ca2+ signal in N2a cells transfected with human TRPV3 (camphor). Format: cell-based. The note with it: camphor stimulation. As for the experimental part: as §1

Data set [4] has as its system mice, UVB-exposed hind paws. Put plainly: UVB-overexposure evoked nocifensive behavior, topical compound. To be noted: 0.5 mM in 40 μL. Format: in vivo, mouse. As for the experimental part: Compounds were tested for their effect on nocifensive behavior (response to pain) following UVB overexposure. Behavioral tests were performed to evaluate the decrease in withdrawal thresholds in response to mechanical von Frey hair or thermal stimuli applied to hind paws. The Von-Frey apparatus (Ugo Basile) applied a mechanical stimulus with a flexible steel wire from underneath the hind paw. The force leading to withdrawal was determined. For the thermal stimuli test, paws were stimulated with heat from underneath applied by an infrared beam (Hargreave's test apparatus; Ugo Basile), and withdrawal latencies were recorded. The withdrawal thresholds were ascertained before and after UV exposure. Mice were exposed to UVB 3-5 days after the last application of tam/oil, using a Bio-Rad Gel Doc 2000 UV transilluminator (302 nm) for 5 min with an exposure of 600 mJ/cm^2. This represents 5-10 times the minimal erythema-inducing dose, in keeping with the rationale of inducing sunburn and studying sunburn-evoked pain.

Data set [5] can be described thus: Compound concentration in tissues/organs and plasma by LC-MS/MS after i.p. injection. Format: in vivo, mouse. To be noted: 10 mg/kg i.p.; for compound concentration in liver and kidney / compound concentration in plasma / concentration at 1 h: 1 h; for concentration at 1 h: mouse, heart, brain, brainstem, trigeminal ganglion, skin, intraperitoneal. As for the experimental part:
Mice were treated with 10 mg/kg i.p. of the respective inhibitor. Post-euthanasia harvested tissue was frozen in liquid nitrogen and stored at −80° C. for further analysis.
Frozen tissue samples were partially thawed and cut into 1 mm slices, 5-15 mg tissue, 2-fold excess water (mass/vol.), 6-fold excess acetonitrile (16- . . . compounds) or methanol (GSK205) containing appropriate amount of internal standard, and 2.5 mm zirconia/silica bead (Biospec Products Inc.) were added to 500-μL polypropyl-ene (PP) conical tube, homogenized in a Fast-Prep apparatus (Thermo-Savant) at speed “4” for 20 sec at room temp, and centrifuged at 13,600 g for 5 min at room temp. Depending on the expected concentration range of the measured compound, the supernatant was diluted 1/4-1/20 (in Mobile phase A, see below) and placed in autosampler for LC-MS/MS analysis.
The LC-MS/MS assay for 16- . . . compounds and GSK205 was developed on an Agilent 1200 series LC system interfaced with Applied Biosystems API 5500QTrap, a hybrid triple quadruple-linear trap MS/MS spectrometer.
Analyst (version 1.6.1) software was used for mass parameters tuning, data acquisition, and quantification. LC column: 3×4 mm RP C18 (Phenomenex, AJ0-4287) was operated at 35° C. Mobile phase A: 0.1% formic acid, 2% acetonitrile, in LC/MS-grade water; mobile phase B: acetonitrile; flow rate: 1 mL/min, 1:1 MS/MS:waste split. Run time was 4 min. Diverter valve was used to send flow to MS/MS only between 1.2 and 2.5 min. The elution gradi-ent was: 0-0.5 min, 1% B; 0.5-1.2 min, 1-95% B; 1.2-1.5 min, 95% B; 1.5-1.6 min, 95-1% B. Autosampler was oper-ated at 4° C.; injection volume was kept at 10-50 μL. Electrospray ionization (ESI) source parameters were: positive ionization mode, curtain gas flow=30, ionization potential=5500 V, temperature=500° C., nebulizing gas 1 flow=30, nebulizing gas 2=30, declustering potential=20 V. 16- . . . compounds and GSK205 were individually infused as 100 nM solutions in 50% A/50% B at 10 μL/min flow rate and parameters optimized to provide maximal ion count for “parent” and collision-produced (“daughter”) MS/MS ions. Parent/daughter quantifier [qualifier] ions utilized: GSK205 (401.1/280[370]), 16-8 (400.1/279.1[91.1], 16-16 (387.1/280[105]), 16-18 (415.2/280[370], 16-19 (414.1/279.2[91.1]. Standard (analyte of interest)/internal standard pairs utilized: GSK205/16-16, 16-8/16-16, 16-18/GSK205, 16-19/16-8.
Calibration samples (n=6) were prepared by adding pure standard of the measured compound to tissue homogenate (tissue+2-fold excess water, mass/vol) in the appropriate range needed for the particular dosing regime. Organs studied were analyzed alongside the study samples. The following are typical ranges used (the lower value representing also the LLOQ at 80% accuracy limit, all other calibrator levels at 85% accuracy limit): 0.38-6 nM (plasma), 6-100 nM (skin), 6-48 nM (heart), 7.5-120 nM (brain), 19-300 or 1500-24000 nM (liver), 56-900 or 1500-12000 nM (kidney), 500-8000 nM (fat). Peak integration, calibration, and quantification was performed within Analyst software. The response of the peak area standard/int. std. to nominal concentration was linear with r=0.999 or better.

Each structure is given as a SMILES string.

T1 sequence (Q704Y3 whole entry): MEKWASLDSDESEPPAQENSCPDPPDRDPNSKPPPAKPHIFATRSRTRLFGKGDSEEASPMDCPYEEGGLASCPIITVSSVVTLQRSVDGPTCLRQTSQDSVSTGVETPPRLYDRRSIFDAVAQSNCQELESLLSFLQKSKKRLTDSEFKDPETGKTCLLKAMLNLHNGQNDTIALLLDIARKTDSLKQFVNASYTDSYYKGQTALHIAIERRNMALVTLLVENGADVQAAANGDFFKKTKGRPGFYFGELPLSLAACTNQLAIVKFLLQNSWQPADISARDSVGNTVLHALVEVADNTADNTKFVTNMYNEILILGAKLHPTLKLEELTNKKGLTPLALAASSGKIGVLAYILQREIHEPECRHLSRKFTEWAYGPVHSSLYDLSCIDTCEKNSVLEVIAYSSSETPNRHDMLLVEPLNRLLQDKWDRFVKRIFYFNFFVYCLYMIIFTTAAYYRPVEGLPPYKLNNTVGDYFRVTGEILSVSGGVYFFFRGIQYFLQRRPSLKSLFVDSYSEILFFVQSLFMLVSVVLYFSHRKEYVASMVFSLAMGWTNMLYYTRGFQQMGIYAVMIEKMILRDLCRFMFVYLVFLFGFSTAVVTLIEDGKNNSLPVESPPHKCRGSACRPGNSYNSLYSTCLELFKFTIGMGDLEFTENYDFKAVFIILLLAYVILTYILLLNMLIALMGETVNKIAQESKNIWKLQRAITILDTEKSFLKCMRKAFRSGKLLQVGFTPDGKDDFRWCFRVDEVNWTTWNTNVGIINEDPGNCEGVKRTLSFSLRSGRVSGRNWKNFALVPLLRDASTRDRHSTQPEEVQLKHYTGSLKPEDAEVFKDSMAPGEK
T3 sequence (Q8NET8 whole entry): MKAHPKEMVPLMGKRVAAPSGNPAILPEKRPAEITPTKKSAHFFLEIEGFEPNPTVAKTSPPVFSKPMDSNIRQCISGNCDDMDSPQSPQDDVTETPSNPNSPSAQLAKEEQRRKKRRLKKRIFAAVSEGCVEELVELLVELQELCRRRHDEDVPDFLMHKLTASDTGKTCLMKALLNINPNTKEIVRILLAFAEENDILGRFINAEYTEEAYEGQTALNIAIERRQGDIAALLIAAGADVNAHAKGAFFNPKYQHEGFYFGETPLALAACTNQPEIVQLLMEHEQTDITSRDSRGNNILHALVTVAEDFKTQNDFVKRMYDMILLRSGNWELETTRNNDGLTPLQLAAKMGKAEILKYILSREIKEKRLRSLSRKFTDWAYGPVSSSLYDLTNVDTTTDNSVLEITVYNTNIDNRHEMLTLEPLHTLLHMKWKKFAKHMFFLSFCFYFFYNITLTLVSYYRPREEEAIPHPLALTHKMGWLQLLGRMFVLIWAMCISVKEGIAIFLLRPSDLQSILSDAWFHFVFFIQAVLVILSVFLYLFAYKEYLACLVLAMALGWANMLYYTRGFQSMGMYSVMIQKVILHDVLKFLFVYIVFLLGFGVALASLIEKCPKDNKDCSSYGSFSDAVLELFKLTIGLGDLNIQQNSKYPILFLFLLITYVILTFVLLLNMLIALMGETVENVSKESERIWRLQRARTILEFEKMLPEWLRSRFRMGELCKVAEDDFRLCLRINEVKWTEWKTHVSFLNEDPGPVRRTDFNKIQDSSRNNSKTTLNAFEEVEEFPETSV
T2 sequence (Q8NER1 whole entry): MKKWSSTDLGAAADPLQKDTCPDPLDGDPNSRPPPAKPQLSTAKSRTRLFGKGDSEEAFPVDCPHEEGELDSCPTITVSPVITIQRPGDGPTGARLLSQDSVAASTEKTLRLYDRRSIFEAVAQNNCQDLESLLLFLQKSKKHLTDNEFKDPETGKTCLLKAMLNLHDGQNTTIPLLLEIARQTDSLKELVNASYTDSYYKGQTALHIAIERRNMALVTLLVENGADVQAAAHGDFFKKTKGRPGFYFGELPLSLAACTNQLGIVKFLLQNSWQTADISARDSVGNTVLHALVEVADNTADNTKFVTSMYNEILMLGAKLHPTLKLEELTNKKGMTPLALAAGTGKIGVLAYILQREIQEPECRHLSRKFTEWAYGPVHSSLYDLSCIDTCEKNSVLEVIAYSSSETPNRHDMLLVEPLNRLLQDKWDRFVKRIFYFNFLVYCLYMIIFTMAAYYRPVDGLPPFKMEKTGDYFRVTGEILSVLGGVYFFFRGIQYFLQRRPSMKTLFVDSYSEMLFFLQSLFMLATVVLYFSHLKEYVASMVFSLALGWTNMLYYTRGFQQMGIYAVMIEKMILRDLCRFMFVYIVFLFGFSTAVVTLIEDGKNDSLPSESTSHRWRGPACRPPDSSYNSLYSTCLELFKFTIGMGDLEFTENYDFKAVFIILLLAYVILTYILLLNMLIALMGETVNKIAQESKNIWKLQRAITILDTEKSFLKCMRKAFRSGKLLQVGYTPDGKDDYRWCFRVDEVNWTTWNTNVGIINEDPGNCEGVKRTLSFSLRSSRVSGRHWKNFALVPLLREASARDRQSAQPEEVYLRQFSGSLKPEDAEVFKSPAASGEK

Turning to `CN(CCc1ccc(Nc2nc(-c3ccccc3)cs2)cc1)Cc1ccccc1` [Compound 16-8], the “inhibition of TRPV1” value in data set [1] is given as “did not inhibit”. For the same compound, the “effect on Ca2+ transience, TRPV1” value in data set [2] is recorded as “not affected”. Further, in data set [3], the “effect on Ca2+ transience, TRPV3” value is “not affected”. Besides, the “response to pain following UVB exposure” value in data set [4] is listed as “especially effective”. Further, in data set [5], the “concentration in fat and pancreas after one hour” value was “above its IC50”; the “compound concentration in liver and kidney” value is on record as “micromolar/submicromolar”; the “compound concentration in plasma” value was “virtually undetectable”; the concentration at 1 h was < 100 nM.

Take `CCN(CCc1ccc(Nc2nc(-c3ccccc3)cs2)cc1)Cc1ccccc1` [Compound 16-19]: in data set [1], the “inhibition of TRPV1” value was “did not inhibit”. Moreover, the “effect on Ca2+ transience, TRPV1” value in data set [2] is “not affected”. The “effect on Ca2+ transience, TRPV3” value in data set [3] was “not affected”. Also, in data set [5], the “compound concentration in liver and kidney” value is “micromolar/submicromolar”; the “compound concentration in plasma” value is reported as “virtually undetectable”; the concentration at 1 h was < 100 nM. In data set [5] (several organs), the “concentration at the 6 h time-point compared to the 1 h time-point” value was 10-20 fold and the “concentration at the 24 h time-point” value was “lower than at the 6 h but higher than at the 1 h time-point”.

As to `CN(CCc1ccc(Nc2nc(-c3cccnc3)cs2)cc1)Cc1ccccc1` [GSK205], in data set [4], the “response to pain following UVB exposure” value was “as effective as vehicle”.
